Assay results taken from patent publication US20120116095A1, “GLYCINE TRANSPORTER INHIBITORS” (TAISHO PHARMACEUTICAL C0., LTD., priority 2009, published 2012).

Molecular target: T1, human type 1 glycine transporter (GlyT1) (Homo sapiens, UniProt P48067)
T1 construct: Glioma T98G cells endogenously expressing human type 1 glycine transporter (GlyT1) were used; endogenous in cells; host or cells: T98G human glioma cells
T1 sequence (P48067 1-706): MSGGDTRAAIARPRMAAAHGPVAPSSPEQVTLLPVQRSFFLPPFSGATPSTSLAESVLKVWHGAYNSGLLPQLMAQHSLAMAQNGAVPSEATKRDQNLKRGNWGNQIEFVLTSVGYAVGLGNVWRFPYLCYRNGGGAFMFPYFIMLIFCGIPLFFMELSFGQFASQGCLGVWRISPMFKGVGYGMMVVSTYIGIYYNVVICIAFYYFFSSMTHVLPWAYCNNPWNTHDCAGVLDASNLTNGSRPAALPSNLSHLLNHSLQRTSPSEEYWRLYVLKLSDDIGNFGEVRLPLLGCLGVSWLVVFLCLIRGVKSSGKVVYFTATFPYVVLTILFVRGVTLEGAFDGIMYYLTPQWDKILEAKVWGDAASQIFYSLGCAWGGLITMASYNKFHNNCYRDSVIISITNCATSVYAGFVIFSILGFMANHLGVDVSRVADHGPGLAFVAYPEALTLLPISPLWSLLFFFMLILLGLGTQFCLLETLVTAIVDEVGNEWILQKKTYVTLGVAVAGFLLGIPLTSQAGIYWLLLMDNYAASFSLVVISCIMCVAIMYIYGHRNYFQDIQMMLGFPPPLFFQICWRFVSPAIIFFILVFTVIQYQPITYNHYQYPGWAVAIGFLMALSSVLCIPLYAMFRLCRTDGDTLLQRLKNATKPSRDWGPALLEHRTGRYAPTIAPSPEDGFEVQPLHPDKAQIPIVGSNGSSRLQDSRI
Assay: Glycine uptake inhibition experiment ([3H]glycine uptake in T98G cells)
Format: cell-based
Details: [3H]glycine 250 nM, 15 min, room temperature, read-out: glycine uptake inhibitory activity (IC50 value)
Description: A glycine uptake experiment was conducted as described in Neuron, 8, 927-935, 1992. Glioma T98G cells endogenously expressing human type 1 glycine transporter (GlyT1) were used. T98G cells were seeded in a 96-well plate at 2.0×10^4 cells/well and cultured overnight in a CO2 incubator. A test compound was dissolved in a 100% DMSO solution and then dissolved in 10 mM HEPES buffer (pH 7.4) containing 150 mM sodium chloride, 1 mM calcium chloride, 5 mM potassium chloride, 1 mM magnesium chloride, 10 mM glucose and 0.2% bovine serum albumin. After removing the cell culture medium, the cells were pre-treated with the test compound for 10 minutes. Subsequently, the test compound and [^3H]glycine (final concentration: 250 nM) were added to the cells and incubated at room temperature for 15 minutes. After the incubation, the extracellular solution was aspirated with a manifold to remove the excess labeled glycine existing outside the cells, and the cells were then lysed with 0.5 M aqueous sodium hydroxide. The amount of glycine uptake was determined by measuring radioactivity in the cell lysate using a liquid scintillation counter. Glycine uptake in the presence of 10 μM ALX5407 was defined as non-specific uptake, and the value calculated by subtracting this non-specific uptake from the total uptake in the absence of 10 μM ALX5407 was defined as specific uptake. Moreover, an inhibition curve was obtained for each test compound at concentrations of […] to calculate the glycine uptake inhibitory activity (IC50 value) of each test substance.
It should be noted that ALX5407 is a HCl salt of N-[(3R)-3-([1,1′-biphenyl]-4-yloxy)-3-(4-fluorophenyl)propyl]-N-methylglycine.

Row | IC50 [nM] | SMILES
1 | 48.3 | CCn1cnc(C(=O)N(Cc2ccc(F)c(-c3cc(F)c(F)c(F)c3)c2)C(C)C)c1 [Compound 42]
2 | 35.1 | CCC(CC)N(Cc1ccc(F)c(-c2cccc(CO)c2)c1)C(=O)c1cn(C)cn1 [Compound 11]
3 | 25.9 | CC(C)N(Cc1ccc(F)c(-c2cccc(CO)c2)c1)C(=O)c1cn(C)cn1 [Compound 7]
4 | 41.5 | COCCN(Cc1ccc(F)c(-c2ccc(OC(F)(F)F)cc2)c1)C(=O)c1cn(C)cn1 [Compound 16]
5 | 22.6 | CC(C)N(Cc1ccc(F)c(-c2cc(F)cc(F)c2)c1)C(=O)c1cn(C)cn1 [Compound 28]
6 | 48.9 | CC(C)N(Cc1ccc(F)c(-c2ccc(OC(F)F)cc2)c1)C(=O)c1cn(C)cn1 [Compound 35]
7 | 48.5 | CC(C)N(Cc1ccc(F)c(-c2cc(F)cc(C#N)c2)c1)C(=O)c1cn(C)cn1 [Compound 39]
8 | 14.2 | COc1cccc(-c2cc(CN(C(=O)c3cn(C)cn3)C(C)C)ccc2F)c1 [Compound 24]
9 | 14.6 | Cn1cnc(C(=O)N(Cc2ccc(F)c(-c3cccc(CO)c3)c2)C2CCCCC2)n1 [Compound 6]
10 | 13.6 | CCOc1cccc(-c2cc(CN(C(=O)c3cn(C)cn3)C(C)C)ccc2F)c1 [Compound 21]
11 | 8.89 | CC(C)N(Cc1ccc(F)c(-c2ccc(F)cc2)c1)C(=O)c1cn(C)cn1 [Compound 18]
12 | 12.6 | COC(=O)c1cccc(-c2cc(CN(C(=O)c3ncn(C)n3)C3CCCCC3)ccc2F)c1 [Compound 2]
13 | 21 | Cn1cnc(C(=O)N(Cc2ccc(F)c(-c3ccc(F)c(F)c3)c2)C2CCCC2)c1 [Compound 31]
14 | 21.4 | CC(C)N(Cc1ccc(F)c(-c2ccccc2F)c1)C(=O)c1cn(C)cn1 [Compound 23]
15 | 11 | Cn1cnc(C(=O)N(Cc2ccc(F)c(-c3cccc(CO)c3)c2)C2CCCCC2)c1 [Compound 8]
16 | 7.19 | CC(C)N(Cc1ccc(F)c(-c2cccc(F)c2)c1)C(=O)c1cn(C)cn1 [Compound 20]
17 | 35.9 | CCn1cnc(C(=O)N(Cc2ccc(F)c(-c3ccc(OC(F)(F)F)cc3)c2)C(C)C)c1 [Compound 40, 1-Ethyl-N-{[6-fluoro-4′-(trifluoromethoxy)biphenyl-3-yl]methyl}-N-(propan-2-yl)-1H-imidazole-4-carboxamide]
18 | 18.8 | CC(C)N(Cc1ccc(F)c(-c2ccc(F)c(F)c2)c1)C(=O)c1cn(C)cn1 [Compound 17]
19 | 30.7 | CC(CO)N(Cc1ccc(F)c(-c2ccc(OC(F)(F)F)cc2)c1)C(=O)c1cn(C)cn1 (stereo not drawn) [Compound 52]
20 | 49.4 | CC(C)N(Cc1ccc(F)c(-c2cccc(OC(F)F)c2)c1)C(=O)c1cn(C)cn1 [Compound 34]
21 | 25.4 | COc1ccc(-c2cc(CN(C(=O)c3cn(C)cn3)C(C)C)ccc2F)cc1 [Compound 25]
22 | 4.33 | Cn1cnc(C(=O)N(Cc2ccc(F)c(-c3cccc(CO)c3)c2)C2CCC2)c1 [Compound 13, N-Cyclobutyl-N-{[6-fluoro-3′-(hydroxymethyl)biphenyl-3-yl]methyl}-1-methyl-1H-imidazole-4-carboxamide]
23 | 18.6 | COc1ccc(-c2cc(CN(C(=O)c3cn(C)cn3)C(C)C)ccc2F)cc1F [Compound 19]
24 | 38.2 | CC(C)N(Cc1ccc(F)c(-c2cc(F)c(F)c(F)c2)c1)C(=O)c1cn(C)cn1 [Compound 36]
25 | 40 | CC(C)N(Cc1ccc(F)c(-c2ccc(Cl)cc2)c1)C(=O)c1cn(C)cn1 [Compound 26]
26 | 11.6 | CC(C)N(Cc1ccc(F)c(-c2ccccc2)c1)C(=O)c1cn(C)cn1 [Compound 22]
27 | 2.78 | Cn1cnc(C(=O)N(Cc2ccc(F)c(-c3cccc(CO)c3)c2)C2CCCC2)c1 [Compound 14]
28 | 21.4 | CC(C)N(Cc1ccc(F)c(-c2cccc(OC(F)(F)F)c2)c1)C(=O)c1cn(C)cn1 [Compound 15]

Same assay, conditions: [3H]glycine 250 nM, 15 min, room temperature, read-out: glycine uptake inhibitory activity (IC50 value), bounds

Row | IC50 [nM] | SMILES
29 | ≥ 100 | CC(C)CN(Cc1ccc(F)c(-c2ccc(F)c(F)c2)c1)C(=O)c1cn(C)cn1 [Compound 32]
30 | ≥ 100 | CC(C)N(Cc1ccc(F)c(-c2cccc(OC(F)(F)F)c2)c1)C(=O)c1ncn(C)n1 [Compound 3]
31 | > 1000 | CC(C)N(Cc1cc(OC(F)(F)F)cc(-c2ccc(F)cc2)c1)C(=O)c1cn(C)cn1 [Compound 50]
32 | > 1000 | CC(C)N(Cc1cc(-c2ccc(F)cc2)cc(C(F)(F)F)c1)C(=O)c1cn(C)cn1 [Compound 49]
33 | ≥ 100 | CC(C)N(Cc1ccc(F)c(-c2ccc(C(F)(F)F)cc2)c1)C(=O)c1cn(C)cn1 [Compound 30]
34 | ≥ 100 | CC(C)N(Cc1ccc(F)c(-c2ccc(C#N)cc2F)c1)C(=O)c1cn(C)cn1 [Compound 37]
35 | > 1000 | CC(C)N(Cc1cc(-c2ccc(OC(F)(F)F)cc2)cc(C(F)(F)F)c1)C(=O)c1cn(C)cn1 [Compound 48]
36 | > 1000 | Cc1ccc(CN(C(=O)c2cn(C)cn2)C(C)C)cc1-c1ccc(F)cc1 [Compound 47]
37 | > 1000 | CC(C)N(Cc1ccc(F)c(-c2ccc(OC(F)(F)F)cc2)c1)C(=O)c1c[nH]cn1 [Compound 54]
38 | ≥ 100 | CC(C)N(Cc1ccc(F)c(-c2ccc(OC(F)(F)F)cc2)c1)C(=O)c1ncn(C)n1 [Compound 4]
39 | ≥ 100 | CC(C)N(Cc1ccc(F)c(-c2cccc(CO)c2)c1)C(=O)c1ncn(C)n1 [Compound 5]
40 | > 1000 | Cc1ccc(CN(C(=O)c2cn(C)cn2)C(C)C)cc1-c1ccc(OC(F)(F)F)cc1 [Compound 46]
41 | ≥ 100 | C=C(C)N(Cc1ccc(F)c(-c2ccc(OC(F)(F)F)cc2)c1)C(=O)c1cn(C)cn1 [Compound 53, N-{[6-Fluoro-4′-(trifluoromethoxy)biphenyl-3-yl]methyl}-1-methyl-N-(prop-1-en-2-yl)-1H-imidazole-4-carboxamide]
42 | > 1000 | COc1ccc(CN(C(=O)c2cn(C)cn2)C(C)C)cc1-c1ccc(F)cc1 [Compound 43]
43 | > 1000 | CC(C)N(Cc1ccc(F)c(-c2cc(F)c(F)c(F)c2)c1)C(=O)c1c[nH]cn1 [Compound 41]
44 | ≥ 100 | CC(C)N(Cc1ccc(Cl)c(-c2ccc(F)cc2)c1)C(=O)c1cn(C)cn1 [Compound 51]

Molecular target: T2, P-glycoprotein (P-gp) (Homo sapiens, UniProt P08183)
T2 construct: expressed in transfected cells; host or cells: LLC-GA5-COL300 (pig kidney LLC-PK1 cells expressing human MDR1)
Assay: Test for substrate recognition by P-gp (LLC-GA5-COL300 cells)
Format: in vitro ADME
Details: 10 μM, Human MDR1-expressing LLC-GA5-COL300 cells, Apical to Basolateral and Basolateral to Apical
Source text: In the case of drugs that act on the central nervous system, it is generally important for such drugs to be transferred from blood into brain for development of their efficacy. In the blood-brain barrier, there is found P-glycoprotein (P-gp), which is a typical member of the efflux transporters that control drug penetration; and P-gp inhibits the penetration of its substrate drugs into the brain. Thus, in developing a drug, recognition performance as a P-gp substrate can be used as an indicator of brain penetration.
A test for substrate recognition by P-gp was conducted as described in J. Pharmacol. Exp. Ther. (1992) Vol. 263, No. 2, 840-845 and J. Biol. Chem. (1992) Vol. 267, No. 34, 24248-24252. Specifically, LLC-GA5-COL300 cells (i.e., a Human MDR1-expressing system originating from a pig kidney-derived cultured renal epithelial cell line, LLC-PK1) were used after being cultured for 4 days on trans wells, and the medium in each well was replaced by Hank's balanced salt solution (HBSS) immediately before use in the test. After a test compound solution (i.e., a DMSO solution of a test compound, which was further diluted with HBSS and adjusted to a final concentration of 10 μM) was added to the Donor side of the LLC-GA5-COL300 cells, aliquots of HBSS were sampled over time from the Acceptor side to determine the test compound concentration in each collected sample by LC-MS/MS.
The membrane permeability coefficient (×10^−6 cm/sec) was calculated by the accumulated amount of the compound into the Acceptor side for both directions, Apical to Basolateral and Basolateral to Apical. and the ratio of these coefficients (Efflux Ratio) was then used to evaluate substrate recognition by P-gp.

T2 sequence (P08183 whole entry): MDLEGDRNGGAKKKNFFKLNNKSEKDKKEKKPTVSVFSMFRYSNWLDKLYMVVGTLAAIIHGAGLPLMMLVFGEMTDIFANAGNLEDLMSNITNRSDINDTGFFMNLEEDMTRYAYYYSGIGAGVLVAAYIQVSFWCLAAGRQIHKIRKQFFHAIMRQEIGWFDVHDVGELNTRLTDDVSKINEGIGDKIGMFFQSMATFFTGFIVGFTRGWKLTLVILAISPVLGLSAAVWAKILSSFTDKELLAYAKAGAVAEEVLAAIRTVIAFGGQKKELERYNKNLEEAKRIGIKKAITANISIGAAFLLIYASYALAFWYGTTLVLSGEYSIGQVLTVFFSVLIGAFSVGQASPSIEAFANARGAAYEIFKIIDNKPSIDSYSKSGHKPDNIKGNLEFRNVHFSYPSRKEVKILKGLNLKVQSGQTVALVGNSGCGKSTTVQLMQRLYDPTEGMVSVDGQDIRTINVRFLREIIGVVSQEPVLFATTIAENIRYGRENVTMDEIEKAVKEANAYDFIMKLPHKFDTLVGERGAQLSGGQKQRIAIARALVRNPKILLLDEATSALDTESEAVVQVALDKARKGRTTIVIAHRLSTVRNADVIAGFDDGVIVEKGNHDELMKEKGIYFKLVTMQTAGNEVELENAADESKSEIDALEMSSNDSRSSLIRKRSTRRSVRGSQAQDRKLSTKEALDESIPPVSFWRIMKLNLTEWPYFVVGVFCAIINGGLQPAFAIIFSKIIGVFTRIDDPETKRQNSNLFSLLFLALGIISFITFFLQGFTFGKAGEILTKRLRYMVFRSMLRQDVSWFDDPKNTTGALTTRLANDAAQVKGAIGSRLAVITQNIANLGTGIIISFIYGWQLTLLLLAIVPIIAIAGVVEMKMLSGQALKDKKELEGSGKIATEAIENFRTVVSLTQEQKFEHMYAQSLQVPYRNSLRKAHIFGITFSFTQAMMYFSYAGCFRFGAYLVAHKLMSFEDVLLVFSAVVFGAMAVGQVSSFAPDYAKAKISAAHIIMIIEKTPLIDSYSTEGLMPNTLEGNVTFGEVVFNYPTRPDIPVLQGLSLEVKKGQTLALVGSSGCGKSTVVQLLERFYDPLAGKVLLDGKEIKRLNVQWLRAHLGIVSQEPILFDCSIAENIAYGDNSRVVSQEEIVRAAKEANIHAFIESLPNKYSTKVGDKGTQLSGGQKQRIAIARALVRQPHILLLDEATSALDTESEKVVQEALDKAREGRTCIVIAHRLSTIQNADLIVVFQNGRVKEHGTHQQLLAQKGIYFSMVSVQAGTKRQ

Row | recognition as a P-gp substrate (Efflux Ratio criteria) | SMILES
45 | not to be recognized as a P-gp substrate | COc1cccc(-c2cc(CN(C(=O)c3cn(C)cn3)C(C)C)ccc2F)c1 [Compound 24]
46 | not to be recognized as a P-gp substrate | CC(C)N(Cc1ccc(F)c(-c2ccc(F)cc2)c1)C(=O)c1cn(C)cn1 [Compound 18]
47 | not to be recognized as a P-gp substrate | CC(C)N(Cc1ccc(F)c(-c2cccc(F)c2)c1)C(=O)c1cn(C)cn1 [Compound 20]
48 | not to be recognized as a P-gp substrate | CC(C)N(Cc1ccc(F)c(-c2ccc(F)c(F)c2)c1)C(=O)c1cn(C)cn1 [Compound 17]
49 | not to be recognized as a P-gp substrate | CC(C)N(Cc1ccc(F)c(-c2ccc(OC(F)(F)F)cc2)c1)C(=O)c1c[nH]cn1 [Compound 54]
50 | not to be recognized as a P-gp substrate | CC(C)N(Cc1ccc(F)c(-c2cc(F)c(F)c(F)c2)c1)C(=O)c1cn(C)cn1 [Compound 36]
51 | not to be recognized as a P-gp substrate | CC(C)N(Cc1ccc(F)c(-c2ccccc2)c1)C(=O)c1cn(C)cn1 [Compound 22]
